Measured values: publication PMC5769128, “Human UDP-Glucuronosyltransferase 2B4 and 2B7 Are Responsible for Naftopidil Glucuronidation in Vitro” (Frontiers in Pharmacology, 2018)
Like-named read-outs stand apart in the source and are kept apart here.

Key:
UGT1A1 = target: T1, UGT1A1 (Homo sapiens, UniProt P22309); assay: Inhibition screening of recombinant UGTs by NAF enantiomers, UGT1A1 (4-MU); assay type: in vitro ADME; conditions: recombinant UGT1A1, probe 4-MU, 10 μM NAF enantiomer, read-out: Inhibition of 4-MU-G formation
T1 construct: purchased BD Gentest
T1 sequence (P22309 26-533): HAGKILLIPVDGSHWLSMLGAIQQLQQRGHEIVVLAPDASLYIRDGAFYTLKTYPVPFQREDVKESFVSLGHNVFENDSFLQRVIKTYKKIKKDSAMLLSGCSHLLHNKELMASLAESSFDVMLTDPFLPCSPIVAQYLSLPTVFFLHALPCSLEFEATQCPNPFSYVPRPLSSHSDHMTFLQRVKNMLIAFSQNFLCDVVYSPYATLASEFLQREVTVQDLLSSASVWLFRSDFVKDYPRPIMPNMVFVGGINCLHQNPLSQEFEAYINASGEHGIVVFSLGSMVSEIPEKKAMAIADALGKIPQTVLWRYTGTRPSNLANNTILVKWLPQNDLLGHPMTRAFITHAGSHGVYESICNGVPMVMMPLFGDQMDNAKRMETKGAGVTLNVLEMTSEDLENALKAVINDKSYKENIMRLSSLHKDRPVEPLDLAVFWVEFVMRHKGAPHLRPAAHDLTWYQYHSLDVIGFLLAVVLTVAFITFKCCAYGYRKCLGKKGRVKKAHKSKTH
Protocol: (§1) The inhibition screening study was performed by investigating the 12 recombinant UGTs with 10 and 100 μM NAF enantiomer. […] 4-MU, as a non-specific substrate, was added to the other incubated samples. Instead of NAF enantiomers, the same volume of water was added to be the control sample. […] The formation of 4-MU-G and TFP-G produced from the 12 incubation system were analyzed by HPLC. The instrument parameters for the LC were as follows: system, Agilent 1260; Agilent Eclipse Plus C18 (2.1 mm × 50 mm, 1.8 μm, Santa Clara, CA, United States); mobile phase, methanol: 0.1% formic acid in water (0–3 min, 35:65; 3.1–4.5 min, 65:35; 4.6–5 min, 35:65); flow rate, 0.4 mL/min; column temperature, 25°C; and injection volume, 2 μL. The retention times of 4-MU, 4-MU-G, TFP, TFP-G, and MU (IS) were 1.5, 0.5, 2.2, 1.8, and 1.0 min, respectively.

UGT2B17 = target: T2, UGT2B17 (Homo sapiens, UniProt O75795); assay: Inhibition screening of recombinant UGTs by NAF enantiomers, UGT2B17 (4-MU); assay type: in vitro ADME; conditions: recombinant UGT2B17, probe 4-MU, 100 μM NAF enantiomer, read-out: Inhibition of 4-MU-G formation
T2 construct: purchased BD Gentest
T2 sequence (O75795 24-530): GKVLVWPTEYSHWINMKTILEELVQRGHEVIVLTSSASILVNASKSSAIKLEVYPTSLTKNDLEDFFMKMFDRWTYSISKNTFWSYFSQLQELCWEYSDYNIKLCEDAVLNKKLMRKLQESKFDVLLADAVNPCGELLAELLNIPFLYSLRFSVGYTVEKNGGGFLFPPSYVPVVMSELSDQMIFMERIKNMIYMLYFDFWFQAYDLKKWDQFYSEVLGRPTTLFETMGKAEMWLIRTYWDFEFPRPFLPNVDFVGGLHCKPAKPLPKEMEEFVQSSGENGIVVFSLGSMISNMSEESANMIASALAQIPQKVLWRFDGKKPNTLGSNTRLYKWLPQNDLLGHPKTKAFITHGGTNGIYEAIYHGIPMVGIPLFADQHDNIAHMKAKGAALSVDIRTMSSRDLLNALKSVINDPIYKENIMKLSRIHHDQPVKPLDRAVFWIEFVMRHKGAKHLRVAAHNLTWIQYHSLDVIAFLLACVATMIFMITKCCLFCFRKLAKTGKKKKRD
Protocol: as §1

UGT2B7 [1] = target: T3, UGT2B7 (Homo sapiens, UniProt P16662); conditions: substrate zidovudine, enzyme UGT2B7
T3 sequence (P16662 24-529): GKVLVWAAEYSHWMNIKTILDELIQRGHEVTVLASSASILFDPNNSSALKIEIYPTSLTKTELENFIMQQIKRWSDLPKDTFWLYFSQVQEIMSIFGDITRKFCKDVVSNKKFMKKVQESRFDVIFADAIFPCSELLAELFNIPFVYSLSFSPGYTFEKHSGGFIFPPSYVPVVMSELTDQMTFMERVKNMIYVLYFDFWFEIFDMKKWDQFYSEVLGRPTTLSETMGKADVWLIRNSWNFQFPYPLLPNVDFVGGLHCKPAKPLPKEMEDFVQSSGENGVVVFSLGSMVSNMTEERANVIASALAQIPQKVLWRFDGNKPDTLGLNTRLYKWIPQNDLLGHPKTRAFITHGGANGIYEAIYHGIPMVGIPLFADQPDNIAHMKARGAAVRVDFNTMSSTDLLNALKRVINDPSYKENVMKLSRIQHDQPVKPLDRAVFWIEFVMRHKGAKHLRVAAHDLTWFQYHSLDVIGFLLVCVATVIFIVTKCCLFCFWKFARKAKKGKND
Protocol: The inhibition of UGT1A9 and UGT2B7 by NAF enantiomer was investigated using the pooled HLM, UGT1A9, and UGT2B7 with concentrations similar to that of the NAF enantiomer. Propofol, which was used as the specific substrate of UGT1A9, was added to the incubation. […] Inhibitor constants (Ki value) were estimated by fitting the expressions for competitive, non-competitive, and mixed inhibition models with Dixon plots and Lineweaver–Burk plots.

UGT2B7 [2] = target: T3, UGT2B7; assay: Kinetics of NAF enantiomer glucuronidation by recombinant UGT2B7; assay type: in vitro ADME; parameters: purchased BD Gentest
Protocol: All glucuronidation assays were conducted in an incubation volume of 200 μL. Incubations were performed at 37°C in 50 mM Tris–HCl buffer (pH 7.5) with 10 mM magnesium chloride, 1 mg protein/mL of enzyme (microsomes and recombinant human UGTs), alamethicin (100 μg of alamethicin/mg microsomal protein), and NAF enantiomers (2.5–80 μM). The reaction was initiated by the addition of UDPGA (5 mM) and incubated at 37°C in a shaking water bath for 45 min. The reaction was terminated by the addition of 200 μL of ice-cold acetonitrile containing the IS (1 μM) and then centrifuged at 5000 ×g for 10 min at 4°C. The supernatant fraction was injected into the RRLC-MS/MS apparatus. Protein concentration (0.5–2 mg/mL) and incubation time (15–180 min) were optimized in preliminary studies to be within initial linear rate conditions.
Kinetic parameters were assessed in the HLM, RLM, HKM, RKM, and recombinant human UGTs (UGT2B4, 2B7, and 1A9).

UGT2B7 [3] = target: T3, UGT2B7; assay: Inhibition screening of recombinant UGTs by NAF enantiomers, UGT2B7 (4-MU); assay type: in vitro ADME; parameters: purchased BD Gentest; conditions: recombinant UGT2B7, probe 4-MU, read-out: Inhibition of 4-MU-G formation; for inhibition at 10 μM: 10 μM NAF enantiomer; for inhibition at 100 μM: 100 μM NAF enantiomer
Protocol: as §1

UGT2B7 [4] = target: T3, UGT2B7; assay: Inhibition of zidovudine glucuronidation in pooled HLM; assay type: in vitro ADME; parameters: tissue BD Gentest; host or cells: pooled human liver microsomes; conditions: substrate zidovudine, enzyme HLM

inhibition at 10 μM (UGT1A1) [%]	inhibition at 100 μM (UGT2B17) [%]	Inhibition type (UGT2B7 [1])	Kinetics type (UGT2B7 [2])	inhibition at 10 μM (UGT2B7 [3]) [%]	inhibition at 100 μM (UGT2B7 [3]) [%]	Inhibition type (UGT2B7 [4])	Ki (UGT2B7 [4]) [µM]	SMILES
> 50	> 75	Competitive	substrate inhibition model	> 50	> 75	Competitive	64.9 ± 7.8	COc1ccccc1N1CCN(C[C@@H](O)COc2cccc3ccccc23)CC1 [R(+)-NAF]
> 50	> 75	Competitive	substrate inhibition model	> 50	> 75	Competitive	35.7 ± 4.1	COc1ccccc1N1CCN(C[C@H](O)COc2cccc3ccccc23)CC1 [S(-)-NAF]
